In US10098895B2, “Treatment of symptoms related to neurodegenerative disorders through pharmacological dermal activation of cranial nerves” (GLIA, LLC, priority 2016, dated 2018):

Columns and labels:
[1] = system: Parkinson's disease symptoms; experiment: Example 1: Parkinson's disease patient, dermal application to forehead and ear conchae
Protocol: A person was diagnosed with the early stages of Parkinson's disease in December of 2014. Their symptoms included tremors in the hands, impaired short term memory, slow and uncontrolled rigid movements while walking and eating, and declining ocular blink function. The patient also had dry eyes with hyper-tearing, burning, and itching.
The patient was also treated with progesterone 1% on the forehead initially once daily beginning in March 2015. […] The progesterone was applied as needed for about a year.
Instead of the prescribed regimen, the patient began dermal application of dronabinol 1.25 mg 2 times daily to three sites: (i) the forehead, (ii) the concha of the left ear, and (iii) the concha of the right ear. Each dose of 1.25 mg was divided equally between the three application sites. This treatment regimen began Friday Jun. 10, 2016 concurrent with the discontinuation of rasagiline.
In February 2017, the patient, who suffers from debilitating moderate spinal stenosis, started taking Azilect (rasagiline) and carbidopa-levodopa to improve their walking and flexibility. […] The patient decided that, together with the prescribed medications, they would switch from dronabinol to topical testosterone gel applied to the forehead and ear conchae to see if this would impact their longstanding low testosterone levels.
In March 2017, topical testosterone gel application was instituted as an adjunct to is the prescribed Azilect and carbidopa-levodopa.
The patient voluntarily stopped topical testosterone for 3 weeks in June 2017. […] At the end of 3 weeks, topical testosterone was re-instituted as an adjunct to the prescribed medications.

essential tremor = experiment: Example 7: essential tremor subject with contact lens discomfort; type: in vivo, human
Protocol: A person developed persistent right hand tremors of a kinetic (non-resting) type that has been continuous over the past 6 years. […] This condition had not worsened over time. […] Initially, their doctor thought that these symptoms were stress related and they have been taking 2.5 mg of escitalopram for over 6 years. […] The subject was not on hormone replacement therapy or any other medication.
Concomitantly, the subject suffered from uncomfortable eyes, with a sticky burning sensation and development of blurred vision after about 5-6 hours of contact lens wear. For the past 3 years, the subject was administered 1% progesterone gel (1 mg per day) by dermal application to the forehead once per night. The progesterone gel prolonged comfortable contact lens wear time with sustained visual acuity from 5-6 hours to greater than 15 hours. […] After 2 years of treatment, the benefits of progesterone dermal application persisted for at least 3 days without treatment. There was no effect of the progesterone on their tremor symptoms.
After allowing for washout of progesterone for 3 days, they began forehead application of 0.5-0.75 mg dronabinol once daily at night.
The dronabinol administration regimen was altered by dividing equally the once daily dose of 0.5-0.75 mg dronabinol between the conchae of the left ear, the conchae of the right ear, and the forehead. […] Comfortable contact lens wear, with ease of insertion and removal, and visual acuity extends for 15 hours or more after dronabinol application.
Contact lens comfort wear duration was greater than 15 hours.
In April 2017, the subject, while still being treated with 1% progesterone applied to the forehead, instituted a once-daily low dose topical testosterone applied to the forehead and ear conchae to determine if doing so would produce a beneficial impact on further tremor reduction and in particular essential tremor triggered by caffeine consumption. […] They stopped the treatment to assess whether the tremor would return to pre-testosterone treatment levels. As of August 2017, the subject is without noticeable tremor. The caffeine trigger for tremor onset, which had been recognized throughout all treatments, has not re-appeared since the completion of the 4-week testosterone treatment. The subject continues on low-dose progesterone 1% applied daily to the forehead as the only treatment.

[2] = system: Parkinson's disease symptoms; experiment: Example 2: Parkinson's disease subject, topical progesterone and testosterone; type: in vivo, human
Source text: A person was diagnosed with Parkinson's disease in August of 2015. Notable symptoms include both resting and action tremor of the left hand and fingers, forearm, and, to a lesser extent, the right hand and the left leg. Handwriting and computer keyboard work were difficult. They had ocular symptoms associated with the disease, including dry eye disease with moderate to severe burning and grittiness, rapid blink rate, and partial blinking. They used artificial tears constantly in an attempt to alleviate the ocular symptoms. They had not been on any Parkinson's medications. Their Parkinson's tremor followed an “on-off” cycle that correlated with their stress levels, the “on” cycle being times with low stress and few symptoms, and the “off” cycle induced by stress showing an increase in symptoms.
In late February 2017, the subject started applying single daily doses of 0.125% testosterone to the forehead and ear conchae. By the third day of treatment, the subject was tremor-free for periods of 4-6 hours, and the “on” part of the cycle was more frequent. […] The dose of testosterone was increased to 0.2% once daily in early April.
In July 2017, testosterone application was stopped after a taper to evaluate its effects. […] On Aug. 17, 2017, they reported extreme anxiety.
That same afternoon, the subject applied 0.2% testosterone to their forehead and ear conchae, and the next day reported less anxiety and more “on” cycles. By Aug. 20, 2017, they reported having stabilized on the once daily applications with a 60% or greater increase in “on” periods. On August 28, they reported going 9 hours without tremors and leg spasms. On Aug. 30, 2017, the subject was able to walk 8 miles and exercised in between. They described themself as feeling 100%.

[3] = prescribed Azilect (rasagiline) together with carbidopa-levodopa
[4] = once-daily low dose topical testosterone to forehead and ear conchae, 4 weeks, with 1% progesterone to forehead

Which motor function [1, 3] does the source give for `C#CCN[C@@H]1CCc2ccccc21` [Azilect, rasagiline] here?
The motor function was “some motor function improvement”.

What about the tremor [1, 3] of the same molecule?
Its tremor is “no more improved than when they were applying dronabinol alone”.

`CN(C)CCC[C@@]1(c2ccc(F)cc2)OCc2cc(C#N)ccc21` [escitalopram] was tested. Which tremor (essential tremor; 2.5 mg of escitalopram for over 6 years) did it give?
The tremor was “no resolution of the tremor”.

With `C[C@]12CC[C@H]3[C@@H](CCC4=CC(=O)CC[C@@]43C)[C@@H]1CC[C@@H]2O` [testosterone] as the molecule, how does the “overall functioning after resumption” value ([1]; testosterone resumed after a three week hiatus) read?
The value was “returned immediately to the improved levels”.

What about the “mental stability, reported by wife” value ([1]; testosterone to forehead and ears, one-year period up to August 2017) of the same molecule?
The value was “very positive impact on their mental stability”.

And the adverse events ([1]; throughout low dose neural cranial treatment)?
The adverse events was “no adverse events were noted”.

And the “cognitive and non-motor symptoms” value ([1]; topical testosterone gel to forehead and ear conchae, adjunct to Azilect and carbidopa-levodopa, by the third day)?
The value was “improvement in cognitive and non-motor symptoms”.

What about the “cognitive and emotional function after stopping treatment” value ([1]; topical testosterone stopped for 3 weeks, within 3 days) of the same molecule?
Its value is “significant decline in cognitive and emotional function”.

What about the tremor-free days ([2]; 0.125% testosterone once daily, mid-March) of the same molecule?
Its tremor-free days is “two full days tremor-free”.

What about the “tremor amplitude and resolution” value ([2]; 0.125% testosterone single daily doses to forehead and ear conchae) of the same molecule?
The value was “the amplitude was less, and the tremors resolved sooner”.

And the tremor-free periods ([2]; 0.125% testosterone single daily doses to forehead and ear conchae, by the third day)?
The tremor-free periods was 4 to 6 h.

What about the “time without tremors and leg spasms” value ([2]; 0.2% testosterone once daily, August 28) of the same molecule?
The value was 9 h.

What about the “increase in 'on' periods” value ([2]; 0.2% testosterone once daily, by Aug. 20, 2017) of the same molecule?
The value was at least 60%.

And the anxiety ([2]; 0.2% testosterone re-applied to forehead and ear conchae, next day)?
The anxiety was “less anxiety”.

And the “symptom trend after stopping treatment” value ([2]; 6 weeks of testosterone abstinence)?
The value was “downward trend in symptoms to pre-treatment levels”.

And the “blood total and free testosterone” value ([2]; July 2017, after topical testosterone 0.125-0.2% once daily)?
The value was “mildly elevated total and free testosterone”.

What about the “tremors after stopping treatment” value ([2]; day 3 of testosterone abstinence) of the same molecule?
Its value is “tremors were more frequent”.

And the “stress management, mood, libido” value ([2]; testosterone 0.2% once daily, through April 2017)?
Its value is “improved stress management, elevated mood with increase in libido and vaginal lubrication”.

What about the “disease progression, assessed by neurologists” value ([2]; testosterone administration, no prescribed Parkinson's medications) of the same molecule?
The value was “no disease progression”.

What about the negative side effects ([2]; topical testosterone, February to July 2017) of the same molecule?
Its negative side effects is “No negative side effects”.

And the “caffeine trigger of essential tremor” value (essential tremor; [4])?
Its value is “near complete resolution of the caffeine trigger”.

What about the “reduction in tremor amplitude and frequency over the original baseline” value (essential tremor; [4]) of the same molecule?
The value was at most 90%.
